From US20260001928A1 (CORTERIA PHARMACEUTICALS, priority 2022, published 2026)
*1 amine or outer side, *2 acyl side, *3 side chain or, on linkers, in order; H or OH if unused. Where a SMILES comes first, the peptide text is derived from it. Side-chain parts run from the residue outwards. [ ]: non-standard residue; d: D form. The star is where a group is joined. C16 diacid = O=C(O)CCCCCCCCCCCCCCC(=O)*; γGlu = O=C(O)[C@H](CCC(=O)[*:2])N[*:1]; αMeL = CC(C)C[C@](C)(N)C(=O)O; AEEA = NCCOCCOCC(=O)O; Aib = CC(C)(N)C(=O)O

How the values were obtained:
human CRF2a receptor = target: T1, human CRF2a receptor (Homo sapiens, UniProt Q13324); test: Activity at human CRF2a receptor, cAMP functional assay in TeloHEAC cells; format: cell-based; conditions: TeloHEAC cells stably expressing human CRF2a receptor, relative to urocortin 2 (100 nM = 100%)
T1 construct: expressed in transfected cells; host or cells: TeloHEAC cells
T1 sequence (Q13324 1-411): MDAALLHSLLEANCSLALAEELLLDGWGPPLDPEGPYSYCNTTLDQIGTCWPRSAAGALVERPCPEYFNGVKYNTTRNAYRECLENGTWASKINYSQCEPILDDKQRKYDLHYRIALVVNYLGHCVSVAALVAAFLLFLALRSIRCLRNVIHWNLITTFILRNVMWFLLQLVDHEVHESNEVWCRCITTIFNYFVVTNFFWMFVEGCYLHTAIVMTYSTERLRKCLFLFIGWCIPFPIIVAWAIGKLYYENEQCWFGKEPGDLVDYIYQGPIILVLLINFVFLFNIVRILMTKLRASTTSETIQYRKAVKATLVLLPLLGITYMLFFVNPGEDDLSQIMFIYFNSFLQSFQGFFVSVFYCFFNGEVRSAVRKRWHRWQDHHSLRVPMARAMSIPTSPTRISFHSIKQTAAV
In short: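 cAMP accumulation was measured by HTRF 665/620 nm ratio after 30 min at 37° C compound exposure (16 twofold dilutions) of CRF2a-expressing TeloHEAC cells, 10000/well, in HEPES-buffered HBSS plus IBMX. Activity was normalised to urocortin 2 at 100 nM (100%), and EC50 was the concentration giving half-maximal activation.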

CFR1R receptor = target: T2, CFR1R receptor (Homo sapiens, UniProt P34998); test: Activity at anti-target CFR1R receptor, cAMP assay in CRF1R-overexpression CHO-K1 cells; format: cell-based; conditions: 100% = Sauvagine at 100 nM; for EC50: cAMP
T2 construct: host or cells: CHO-K1 (clone 2)
T2 sequence (P34998 24-415): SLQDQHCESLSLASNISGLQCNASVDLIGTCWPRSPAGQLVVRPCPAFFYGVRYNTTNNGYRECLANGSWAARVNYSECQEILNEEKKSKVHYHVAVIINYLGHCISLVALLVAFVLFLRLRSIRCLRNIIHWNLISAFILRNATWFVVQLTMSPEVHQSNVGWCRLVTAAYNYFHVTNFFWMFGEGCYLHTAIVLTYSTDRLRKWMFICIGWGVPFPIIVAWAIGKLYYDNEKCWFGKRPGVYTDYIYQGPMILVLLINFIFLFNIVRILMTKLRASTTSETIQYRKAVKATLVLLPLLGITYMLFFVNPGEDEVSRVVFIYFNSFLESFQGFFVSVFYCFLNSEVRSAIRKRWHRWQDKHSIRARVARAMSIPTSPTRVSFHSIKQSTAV
In short: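 cAMP readout in CRF1R-overexpressing CHO-K1 cells (clone 2), run as for the TeloHAEC assay at 4000 cells/well final. Cells came from cryopreserved banks. Sauvagine at 100 nM defined 100% activation.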

Structure (SMILES) | EC50 (human CRF2a receptor) | Emax (% I) (CFR1R receptor) | EC50 (CFR1R receptor)
CC[C@H](C)[C@H](NC(C)=O)C(=O)N[C@H](C(=O)N[C@@H](CC(C)C)C(=O)N[C@@H](CO)C(=O)N[C@@H](CC(C)C)C(=O)N[C@@H](CC(=O)O)C(=O)N[C@@H](C(=O)N1CCC[C@H]1C(=O)N[C@H](C(=O)N[C@@H](CCCCN)C(=O)N[C@@H](CC(C)C)C(=O)N[C@@H](CCCCNC(=O)CC[C@H](NC(=O)CC[C@H](NC(=O)CCCCCCCCCCCCCCC(=O)O)C(=O)O)C(=O)O)C(=O)N[C@@H](CCCCN)C(=O)N[C@H](C(=O)N[C@@H](CC(C)C)C(=O)N[C@@H](CC(C)C)C(=O)N[C@@H](CCC(=O)O)C(=O)N[C@@H](CCC(N)=O)C(=O)N[C@@H](CCC(=O)O)C(=O)N[C@@H](CCCCN)C(=O)N[C@@H](CCC(N)=O)C(=O)N[C@@H](CCCCN)C(=O)N[C@@H](CCCCN)C(=O)N[C@@H](CCC(N)=O)C(=O)N[C@@H](CCCNC(=N)N)C(=O)N[C@@H](CCC(=O)O)C(=O)N[C@@H](CCC(N)=O)C(=O)N[C@@H](C)C(=O)N[C@@H](CCC(=O)O)C(=O)N[C@H](C(=O)N[C@@H](CC(N)=O)C(=O)NC(C)(C)C(=O)N[C@@H](CCC(N)=O)C(=O)N[C@H](C(=O)N[C@@H](CC(C)C)C(=O)N[C@@H](C)C(=O)N[C@@H](CCC(N)=O)C(=O)N[C@H](C(N)=O)C(C)C)[C@@H](C)CC)[C@@H](C)O)[C@@H](C)CC)[C@@H](C)CC)C(C)C)C(C)C [compound 41] (Ac-IVLSLD[dV]PIKLK([γGlu-γGlu-C16 diacid])KILLEQEKQKKQREQAETN[Aib]QILAQV-NH2) | 1.85 nM | 7 % I | > 250 nM
CC[C@H](C)[C@H](NC(C)=O)C(=O)N[C@H](C(=O)N[C@@H](CC(C)C)C(=O)N[C@@H](CO)C(=O)N[C@@H](CC(C)C)C(=O)N[C@@H](CC(=O)O)C(=O)N[C@@H](C(=O)N1CCC[C@H]1C(=O)N[C@H](C(=O)N[C@@H](CCCCN)C(=O)N[C@@H](CC(C)C)C(=O)N[C@@H](CCCCNC(=O)COCCOCCNC(=O)COCCOCCNC(=O)CC[C@H](NC(=O)CCCCCCCCCCCCCCC(=O)O)C(=O)O)C(=O)N[C@@H](CCCCN)C(=O)N[C@H](C(=O)N[C@@H](CC(C)C)C(=O)N[C@@H](CC(C)C)C(=O)N[C@@H](CCC(=O)O)C(=O)N[C@@H](CCC(N)=O)C(=O)N[C@@H](CCC(=O)O)C(=O)N[C@@H](CCCCN)C(=O)N[C@@H](CCC(N)=O)C(=O)N[C@@H](CCCCN)C(=O)N[C@@H](CCCCN)C(=O)N[C@@H](CCC(N)=O)C(=O)N[C@@H](CCCNC(=N)N)C(=O)N[C@@H](CCC(=O)O)C(=O)N[C@@H](CCC(N)=O)C(=O)N[C@@H](C)C(=O)N[C@@H](CCC(=O)O)C(=O)N[C@H](C(=O)N[C@@H](CC(N)=O)C(=O)NC(C)(C)C(=O)N[C@@H](CCC(N)=O)C(=O)N[C@H](C(=O)N[C@@H](CC(C)C)C(=O)N[C@@H](C)C(=O)N[C@@H](CCC(N)=O)C(=O)N[C@H](C(N)=O)C(C)C)[C@@H](C)CC)[C@@H](C)O)[C@@H](C)CC)[C@@H](C)CC)C(C)C)C(C)C [compound 42] (Ac-IVLSLD[dV]PIKLK([AEEA-AEEA-γGlu-C16 diacid])KILLEQEKQKKQREQAETN[Aib]QILAQV-NH2) | 3.08 nM | 1 % I | > 250 nM
CC[C@H](C)[C@H](NC(=O)[C@H](CCC(N)=O)NC(=O)C(C)(C)NC(=O)[C@H](CC(N)=O)NC(=O)[C@@H](NC(=O)[C@H](CCC(=O)O)NC(=O)[C@H](C)NC(=O)[C@H](CCC(N)=O)NC(=O)[C@H](CCC(=O)O)NC(=O)[C@H](CCCNC(=N)N)NC(=O)[C@H](CCC(N)=O)NC(=O)[C@H](CCCCN)NC(=O)[C@H](CCCCN)NC(=O)[C@H](CCC(N)=O)NC(=O)[C@H](CCCCN)NC(=O)[C@H](CCC(=O)O)NC(=O)[C@H](CCC(N)=O)NC(=O)[C@H](CCC(=O)O)NC(=O)[C@H](CC(C)C)NC(=O)[C@H](CC(C)C)NC(=O)[C@@H](NC(=O)[C@H](CCCCN)NC(=O)[C@H](CCCCNC(=O)CC[C@H](NC(=O)CCCCCCCCCCCCCCC(=O)O)C(=O)O)NC(=O)[C@H](CC(C)C)NC(=O)[C@H](CCCCN)NC(=O)[C@@H](NC(=O)[C@@H]1CCCN1C(=O)[C@H](NC(=O)[C@H](CC(=O)O)NC(=O)[C@H](CC(C)C)NC(=O)[C@H](CO)NC(=O)[C@H](CC(C)C)NC(=O)[C@@H](NC(C)=O)C(C)C)C(C)C)[C@@H](C)CC)[C@@H](C)CC)[C@@H](C)O)C(=O)N[C@@H](CC(C)C)C(=O)N[C@@H](C)C(=O)N[C@@H](CCC(N)=O)C(=O)N[C@H](C(N)=O)C(C)C [compound 45] (Ac-VLSLD[dV]PIKLK([γGlu-C16 diacid])KILLEQEKQKKQREQAETN[Aib]QILAQV-NH2) | 0.96 nM | 5 % I | > 250 nM

Second part, the compound after the results:

EC50 (human CRF2a receptor) | Emax (% I) (CFR1R receptor) | EC50 (CFR1R receptor) | Structure (SMILES)
0.53 nM | 2 % I | > 250 nM | CC[C@H](C)[C@H](NC(C)=O)C(=O)N[C@H](C(=O)N[C@@H](CC(C)C)C(=O)N[C@@H](CO)C(=O)N[C@@H](CC(C)C)C(=O)N[C@@H](CC(=O)O)C(=O)N[C@H](C(=O)N1CCC[C@H]1C(=O)N[C@H](C(=O)N[C@@H](CCCCN)C(=O)N[C@@H](CC(C)C)C(=O)N[C@@H](CCCCNC(=O)CC[C@H](NC(=O)CCCCCCCCCCCCCCC(=O)O)C(=O)O)C(=O)N[C@@H](CCCCN)C(=O)N[C@H](C(=O)N[C@@H](CC(C)C)C(=O)N[C@@H](CC(C)C)C(=O)N[C@@H](CCC(=O)O)C(=O)N[C@@H](CCC(N)=O)C(=O)N[C@@H](CCC(=O)O)C(=O)N[C@@H](CCCCN)C(=O)N[C@@H](CCC(N)=O)C(=O)N[C@@H](CCCCN)C(=O)N[C@@H](CCCCN)C(=O)N[C@@H](CCC(N)=O)C(=O)N[C@@H](CCCNC(=N)N)C(=O)N[C@@H](CCC(=O)O)C(=O)N[C@@H](CCC(N)=O)C(=O)N[C@@H](C)C(=O)N[C@@H](CCC(=O)O)C(=O)N[C@H](C(=O)N[C@@H](CC(N)=O)C(=O)NC(C)(C)C(=O)N[C@@H](CCC(N)=O)C(=O)N[C@H](C(=O)N[C@@H](CC(C)C)C(=O)N[C@@H](C)C(=O)N[C@@H](CCC(N)=O)C(=O)N[C@H](C(N)=O)C(C)C)[C@@H](C)CC)[C@@H](C)O)[C@@H](C)CC)[C@@H](C)CC)C(C)C)C(C)C [compound 39] (Ac-IVLSLDVPIKLK([γGlu-C16 diacid])KILLEQEKQKKQREQAETN[Aib]QILAQV-NH2)
0.25 nM | 5 % I | > 250 nM | CC[C@H](C)[C@H](NC(C)=O)C(=O)N[C@H](C(=O)N[C@@H](CC(C)C)C(=O)N[C@@H](CO)C(=O)N[C@@H](CC(C)C)C(=O)N[C@@H](CC(=O)O)C(=O)N[C@@H](C(=O)N1CCC[C@H]1C(=O)N[C@H](C(=O)N[C@@H](CCCCN)C(=O)N[C@@](C)(CC(C)C)C(=O)N[C@@H](CCCCNC(=O)CC[C@H](NC(=O)CCCCCCCCCCCCCCC(=O)O)C(=O)O)C(=O)N[C@@H](CCCCN)C(=O)N[C@H](C(=O)N[C@@H](CC(C)C)C(=O)N[C@@H](CC(C)C)C(=O)N[C@@H](CCC(=O)O)C(=O)N[C@@H](CCC(N)=O)C(=O)N[C@@H](CCC(=O)O)C(=O)N[C@@H](CCCCN)C(=O)N[C@@H](CCC(N)=O)C(=O)N[C@@H](CCCCN)C(=O)N[C@@H](CCCCN)C(=O)N[C@@H](CCC(N)=O)C(=O)N[C@@H](CCCNC(=N)N)C(=O)N[C@@H](CCC(=O)O)C(=O)N[C@@H](CCC(N)=O)C(=O)N[C@@H](C)C(=O)N[C@@H](CCC(=O)O)C(=O)N[C@H](C(=O)N[C@@H](CC(N)=O)C(=O)NC(C)(C)C(=O)N[C@@H](CCC(N)=O)C(=O)N[C@H](C(=O)N[C@@H](CC(C)C)C(=O)N[C@@H](C)C(=O)N[C@@H](CCC(N)=O)C(=O)N[C@H](C(N)=O)C(C)C)[C@@H](C)CC)[C@@H](C)O)[C@@H](C)CC)[C@@H](C)CC)C(C)C)C(C)C [compound 44] (Ac-IVLSLD[dV]PIK[αMeL]K([γGlu-C16 diacid])KILLEQEKQKKQREQAETN[Aib]QILAQV-NH2)
